Values quoted from earlier work as cited in US20150150812A1, “CONTROLLED RELEASE FORMULATIONS WITH […]” (Egalet Ltd., priority 2009, published 2015).

Test system: postoperative patients

Compound: CN1CC[C@]23c4c5ccc(O)c4O[C@H]2[C@@H](O)C=C[C@H]3[C@H]1C5 [morphine]
- Calculated mean (SD) MEAC (10 postoperative patients, Dahlström et al (1982)): 16 (9) ng/mL
- Estimated MEAC (postoperative patients, patient-controlled analgesia, Graves et al (1985)): 20 to 40 ng/mL
